One block for each molecule: values may come before it.
How the values were obtained:
[1] = system: T1, GOD (glucose oxidase) from G. gastrica; test: Michaelis-Menten initial rates; peroxidase / o-dianisidine assay, […] nm; assay type: biochemical, Goffeauzyma gastrica; conditions: 64 °C, 2 M CaCl2; glucose 0.006-11 mM; O2 as co-substrate
T1 construct: native extracellular enzyme purified from yeast culture supernatant (ammonium sulfate, Superdex 75); Mr 91,000 by SDS-PAGE

[2] = system: T2, ALP (alkaline phosphatase) from Dioszegia sp.; test: Michaelis-Menten initial rates; alkaline phosphatase assay kit, […] nm; assay type: biochemical; conditions: 47 °C, pH 9.0; pNPP 0.001-2 mM
T2 construct: native extracellular enzyme purified from yeast culture supernatant (ammonium sulfate, anion exchange); Mr 39,000 by SDS-PAGE

purified protein = substrate: OC[C@H]1O[C@@](CO)(O[C@H]2O[C@H](CO)[C@@H](O)[C@H](O)[C@H]2O)[C@@H](O)[C@@H]1O; test: purified protein; assay type: biochemical, Hansenula anomala; conditions: 60 °C, pH 5.0, sucrose 1-100 mM

- Km [1]: 1600 µM
Molecule: OC[C@H]1OC(O)[C@H](O)[C@@H](O)[C@@H]1O (stereo partly shown) [glucose]

- Km [2]: 590 µM
Molecule: O=[N+]([O-])c1ccc(OP(=O)(O)O)cc1 [p-nitrophenylphosphate]

B1: Inv (invertase) from W. anomalus (Hansenula anomala) (protein)
chain: STEYLRPQIHLTPDQGWMNDPNGMFYDRKDKLWHVYFQHNPDKKSIWATPVTWGHSTSKDLLTWDYHGNALEPENDDEGIFSGSVVVDRNNTSGFFNDSTDPEQRIVAIYTNNAQLQTQEIAYSLDKGYSFIKYDQNPVINVNSSQQRDPKVLWHDESNQWIMVVAKTQEFKVQIYGSPDLKKWDLKSNFTSNGYLGFQYECPGLFKLPIENPLNDTVTSKWVLLLAINPGSPLGGSINEYFIGDFDGTTFHPDDGATRFMDIGKDFYAFQSFDNTEPEDGALGLAWASNWQYANTVPTENWRSSMSLVRNYTLKYVDVNPENYGLTLIQKPVYDTKETRLNETLKTLETINEYEVNDLKLDKSSFVATDFNTERNATGVFEFDLKFTQTDLKMGYSNMTTQFGLYIHSQTVKGSQETLQLVFDTLSTTWYIDRTTQHSFQRNSPVFTERISTYVEKIDTTDQGNVYTLYGVVDRNILELYFNDGSIAMTNTFFFREGKIPTSFEVVCDSEKSFITIDELSVRELARK
notes: native extracellular enzyme purified from yeast culture supernatant (ammonium sulfate, Superdex 200); Mr 101,000 by SDS-PAGE
- Km (purified protein): 78600 µM
- Vmax (purified protein): 99500 µM/min
